Assay results reported in US20130059787A1, “METHODS OF USING HUMAN PROTEIN KINASE C DELTA VIII AS A BIOMARKER” (UNITED STATES DEPARTMENT OF VETERAN AFFAIRS, priority 2010, published 2013).

Tests used:
A1 = assay: Apoptosis micro-array (SuperArray, real-time RT-PCR) in NT2 cells; format: cell-based, human; conditions: RA about 24 h vs control
From the text: (§1) FIG. 4 is a 3D profile of the results from the apoptosis micro-array. The graph represents an average of control and RA (1 day) samples carried out in triplicate. The average ΔCt=Ct(gene of interest)−Ct(housekeeping gene).
(§2) The inventors have shown that retinoic acid increases the levels of PKCδVIII in NT2 cells. An apoptosis micro-array (SuperArray, catalog #PAHS-012A) was used to determine the profiles of proteins associated with the apoptotic cascade. RNA was isolated from control and RA (about 24 h) treated NT2 cells and used in the analysis. Real-time RT-PCR was performed according to the manufacturers' protocol and data was analyzed by SuperArray software (FIG. 4). The inventors observed about a 6-fold increase in Bcl-2 levels which were concurrent with an increase in PKCδVIII levels following RA treatment.

Bcl-2 = assay: as above; format: cell-based, human; conditions: RA about 24 h vs control
From the text: as §1, §2

Mcl-1 = assay: as above; format: cell-based, human; conditions: RA about 24 h vs control
From the text: as §1, §2

SR proteins = assay: Western blot of NT2 whole cell lysates with mAb104 antibody; format: cell-based, human; conditions: RA about 10 μM, about 24 h; NT2 cells
Experimental: FIG. 6 is a series of images illustrating the detection of SR proteins involved in RA-mediated PKXδVIII expression. NT2 cells were treated with RA (about 10 μM) for about 24 h or without RA (control), and Western blot analysis was performed on whole cell lysates using (a) mAb104 antibody that detects all SR proteins and (b) specific antibodies as indicated in the figure. Molecular masses are indicated (kDa).
Cell lysates (about 40 μg) were separated on 10% SDS-PAGE. […] In apoptotic cells, PARP is cleaved by caspase 3 into an 85 kDa fragment which is detected in addition to the 116 KDa fragment using anti-PARP antibody in western blot analysis. […] (Putt K S, Beilman G J, and H. P J., Direct quantitation of poly(ADP-ribose) polymerase (PARP) activity as a means to distinguish necrotic and apoptotic death in cell and tissue samples. Chembiochem, 2005. 6: p. 53-55)
(SR) proteins that bind to exonic or intronic splicing enhancers (ESE, ISE) on the pre-mRNA. […] NT2 cells were treated with or without RA (about 24 h), and whole cell lysates were analyzed by Western blot analysis using mAb104 antibody that simultaneously detects the phosphoepitopes on all SR proteins. […]

PKCδVIII mRNA = conditions: RA about 24 h; Jiang et al. 2008; cited from earlier work

CC1=C(/C=C/C(C)=C/C=C/C(C)=C/C(=O)O)C(C)(C)CCC1 [RA, all-trans-retinoic acid]
A1 levels (A1): Moderate increases | increase in Bcl-2 levels (Bcl-2): ~6 fold | Mcl-1 levels (Mcl-1): Moderate increases | SR protein at ~30 kDa expression (mAb104) (SR proteins): increased in expression | expression of PKCδVIII in NT2 cells (PKCδVIII mRNA): significantly increases
